Results: PMC4446823, “Inhibition of RORγt activity and Th17 differentiation by a set of novel compounds” (BMC Immunology, 2015)
pEC50: −log10 of the molar value. Like-named read-outs stand apart in the source and are kept apart here.

Columns and labels:
RORγt [1] = molecular target: T1, RORγt (Homo sapiens, UniProt P51449); assay: Gal4/RORγt-LBD luciferase reporter assay in RORγt-LBD+ Jurkat stable cells; assay type: cell-based; conditions: RORγt-LBD+ Jurkat cells, 6 h
T1 construct: expressed in transfected cells
T1 sequence (P51449 269-508 limits assumed): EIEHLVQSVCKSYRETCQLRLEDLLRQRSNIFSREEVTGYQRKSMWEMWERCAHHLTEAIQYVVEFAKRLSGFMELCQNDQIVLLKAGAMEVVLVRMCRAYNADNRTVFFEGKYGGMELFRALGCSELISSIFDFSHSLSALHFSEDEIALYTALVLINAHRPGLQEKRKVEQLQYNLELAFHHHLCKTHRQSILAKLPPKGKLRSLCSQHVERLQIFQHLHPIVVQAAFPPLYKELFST
Excerpt: (§1) The pGL4.31 (luc2P/GAL4UAS/Hygro) and pBIND vectors were obtained from Promega (Madison, WI, USA). An IRES-GFP sequence was first cloned into the pBIND vector. Human RORγt was then amplified using cDNA isolated from human peripheral blood mononuclear cells (PBMCs) (provided by Dr. Hui Zhang) and inserted into the reconstructed pBIND-IRES-GFP vector to generate a Gal4–RORγt-LBD-IRES-GFP fusion sequence. The primers that used to construct the pBIND- Gal4–RORγt-LBD-IRES-GFP plasmid are as follows: RORγt-LBD forward 5′- […]-3′,reverse5′- […] -3′.
A similar procedure was used to generate the Jurkat RORγt -LBD reporter cell line. For this, Jurkat cells (1 × 10^7) were transfected with pGL4.31 reporter plasmid (20 μg) by electroporation (Lonza, Basel, Switzerland) according to the manufacturer’s instructions. The transfected Jurkat cells were selected in RPMI 1640 medium containing 200 μg/mL hygromycin B prior to a second transfection. Stable Jurkat cotransfectants were then sorted based on GFP expression, and yielded a GFP^+ purity >96 % as determined by flow cytometry.
RORγt-LBD^+-Jurkat (2 × 10^4) stable cells were seeded into 96-well round-bottom plates (Corning Inc, Corning, NY) and incubated in RPMI1640 complete medium overnight. Then, Screened compounds (Enamine, Monmouth Junction, NJ) were added to the wells using a Tecan Freedom EVO 150 (Tecan, Männedorf, Switzerland) to a final concentration of 50 μM. Cells were treated with DMSO or 100 nM PMA (Sigma-Aldrich, St. Louis, MO) only for use as negative and positive controls, respectively. After a 6 h treatment period, cells were lysed and assayed for luciferase activity (Promega) following the manufacturer’s instructions.
RORγt-LBD^+-Jurkat cells were seeded into 96-well round-bottom plates (2 × 10^4) and cultured overnight prior to incubation with the screening compounds at 5-fold gradient final concentrations ranging from 5 μM to 8 nM. Cells were lysed 6 h later and assayed for luciferase activity (Promega) using the manufacturer’s instructions. Additionally, the results from the high-throughput screening at 50 μM concentration of candidates were also applied in the calculation of the EC50. The EC50 values were determined by plotting the logarithm of compound concentration versus relative luciferase activity to determine the half-maximal effective concentration (EC50).

RORγt [2] = molecular target: T1, RORγt; assay: Gal4/RORγt-LBD luciferase reporter assay in RORγt-LBD+ 293 T stable cells; assay type: cell-based; conditions: RORγt-LBD+ 293 T cells, 5 μM, 6 h
Excerpt: as §1
The pGL4.31 reporter plasmid (4 μg) was transfected into 293 T cells (1 × 10^6) with Lipofectamine™ 2000 (Invitrogen) according to manufacturer instructions. The transfected cells were then selected in a medium containing 100 μg/mL hygromycin B (Roche, San Francisco, CA, USA) for 3 weeks to obtain a cell population that expressed the pGL4.31 reporter gene. Then, the stable cells were transfected with pBIND-RORγt-LBD-IRES-GFP plasmid (4 μg). The cotransfectants were sorted by green fluorescent protein (GFP) expression, which yielded a RORγt-LBD^+ 293Tstable reporter cell line with >96 % purity as determined by flow cytometry.
RORγt-LBD^+-293 T (1x10^4) stable cells wereseeded into 96-well plates (Corning Inc., Corning, NY)and incubated in DMEM complete medium overnight. Then the candidates were added with a final concentration of 5 μM. […]

[3] = tested on: mouse Th17 cell differentiation; assay: In vitro mouse Th17 cell differentiation, mRNA by quantitative PCR; assay type: cell-based; conditions: 5 μM, Th17-polarizing conditions (TGF-β, IL-6), 4 days, normalized to GAPDH
Experimental: (§2) CD4^+CD25^− T cells were isolated from spleens of 8–12-week-old C57BL/6 mice as follows: single-cell suspensions were made by crushing the spleen through a cell strainer, and red blood cells (RBCs) were lysed with RBC lysis buffer. CD4^+ T cells were then purified using magnetic-activated cell sorting (MACS) column a CD4^+ T cell isolation kit (Miltenyi Biotec, Bergisch Gladbach, Germany) according to the manufacturer’s protocol.
(§3) Spleen cells (3 × 10^6) were stimulated in 6-well plates with 5 μg/mL plate-bound anti-CD3e antibody (eBioscience, San Diego, USA) and 2 μg/mL soluble anti-CD28 antibody (eBioscience) for 24 h. The activated cells were then collected, and seeded into 96-well round-bottom plates (2 × 10^4) for Th17 differentiation in the presence of 5 ng/mL recombinant human TGF-β (R&D Systems, Minneapolis, MN), 30 ng/mL recombinant mouse IL-6 (R&D Systems, Minneapolis, MN), and either the screening compounds (5 μM final concentration) or DMSO as control. After culturing for 2 days, fresh medium (100 uL/well) containing recombinant human TGF-β, recombinant mouse IL-6, and the previously-introduced screening compounds was added to the cells, which were then cultured for additional 2 days.
Total RNA was extracted from splenocytes with TRIzol (Invitrogen) after 5 days in culture. Approximately 1 μg total RNA was added to a 20 μL reaction volume for reverse transcription using the GoScript™ Reverse Transcription System (Promega) according to the manufacturer’s instructions. Synthesized cDNA was then used for real-time quantitative PCR using GoTaq® qPCR Master Mix (Promega). Gene expression of mouse Rorc, Il17a, and Il17f was normalized to that of Gapdh. The following primer sequences were used: Rorc forward 5′-TGTAATGTGG CCTACTCCTGCA-3′, reverse 5′-[…]-3′; Il17a forward 5′- […]-3′, reverse 5′-[…] -3′; Il17f forward 5′-[…]-3′, reverse 5′- […]-3′; Gapdh forward 5′-[…]-3′, reverse 5′-[…]-3′.

IL-17A secretion = IL-17A secretion by ELISA in culture supernatant under Th17-polarizing conditions; assay type: cell-based; conditions: mouse CD4+ T cells, compound 5 μM, 5 days
Experimental: as §2, §3
The concentration of IL-17A in the splenocyte supernatant after 5 days in culture was determined using an ELISA kit (CUSABIO, Wuhan, China) according to the manufacturer’s protocol.

[4] = Jurkat cell viability, MTT assay; assay type: cell-based, human; conditions: human, wild-type Jurkat cells, highest concentration 5 μM
Experimental: (§4) Jurkat cell viability after culturing in the presence of the screened compounds was assessed by MTT assay. In brief, wild type Jurkat cells were seeded (2 × 10^4) and incubated with the compounds in 5-fold gradient dilutions. MTT (dimethylthiazolyl-2-5-diphenyltetrazolium bromide) dye solution (Sigma, St. Louis, MO, USA) was added 48 h later and incubated at 37 °C for 4 h, MTT was reduced by live cells into a colored formazan product. After centrifugation at 1500 rpm for 5 min, the supernatant was discarded and 100 μL DMSO was added to the plate, which was gently shaken for 10 min to dissolve the formazan product. Absorbance at 570 nm wavelength was recorded using Thermo Scientific Multiskan FC (Thermo Scientific, Waltham, MA, USA). Each treatment was repeated in quadruplicate. Cell viabilities were defined relative to control cells treated only with DMSO, with results used as evaluation of cytotoxicity of candidates. The half-maximal cytotoxic concentration (CC50) for each compound was calculated from the dose–response curves with the aid of GraphPad Prism software 5.0 (GraphPad Software, San Diego, CA).

wild type Jurkat cells = assay: Jurkat cell viability, MTT assay; assay type: cell-based, human; conditions: 48 h; for reduction of Jurkat cell viability over vehicle control: 5 μM (highest concentration)
Experimental: as §4

[5] = read-out: EC50, inhibition of RORγt activity, Gal4/RORγt-reporter system

Row | SMILES | pEC50 (RORγt [1]; 5 μM to 8 nM, read-out: EC50, relative luciferase activity, Gal4-reporter system) | reduction of RORγt activity in 293 T cells (RORγt [2]) | pEC50 (RORγt [1]; [5]) | Il17a gene expression compared with vehicle-treated control group [3] | Il17f gene expression compared with vehicle-treated control group [3] | IL-17A concentration in culture supernatant (IL-17A secretion) | reduction of IL-17A concentration compared with vehicle-treated control cells (IL-17A secretion) | CC50 at 48 h [4] | reduction of Jurkat cell viability over vehicle control (wild type Jurkat cells) | CC50 (wild type Jurkat cells; wild-type Jurkat cells, highest concentration 5 μM)
1 | CC1Cc2ccccc2N1S(=O)(=O)c1ccc(Cl)c(C(F)(F)F)c1 (centres unmarked) [744267-30-9, 1-[4-chloro-3-(trifluoromethyl)phenyl] sulfonyl-2-methyl-2,3-dihydroindole, reference compound] | 6.14 | strongly inhibited |  |  |  |  |  |  |  | 
2 | Cc1cc(NC(=O)NC(c2ccc(C(C)C)cc2)c2cccs2)no1 (centres unmarked) [compound 29, 3-(5-methyl-1,2-oxazol-3-yl) - 1-[(4-propan-2-ylphenyl) - thiophen-2-ylmethyl] urea] |  |  | 5.68 | significantly reduce | significantly reduce | 209 pg/mL | 44% | > 5 µM | less than 25% | 
3 | O=C(c1ccc(C2CCCCC2)cc1)N(CC1CCCO1)C1CCS(=O)(=O)C1 (centres unmarked) [compound 31, 4-cyclohexyl-N-(1,1-dioxothiolan-3-yl) - N-(oxolan-2-ylmethyl) benzamide] |  |  | 4.76 | significantly reduce | significantly reduce | 226 pg/mL | 39% |  | less than 25% | 
4 | CCc1nnc(NC(=O)C2(S(=O)(=O)c3ccc(C)c(C)c3)CCCC2)s1 [compound 35, 1-(3,4-dimethylphenyl) sulfonyl-N-(5-ethyl-1,3,4-thiadiazol-2-yl) cyclopentane-1-carboxamide] |  |  | 4.55 | significantly reduce | significantly reduce |  |  |  | less than 25% | 
5 | CCCc1cc(C(=O)OCC(=O)NC(=O)NC2CCCC2)sc1C [compound 36, 2- Thiophenecarboxylic acid, 5-methyl-4-propyl-,2-[[(cyclopentylamino)carbonyl]amino] - 2-oxoethyl ester] |  |  | 5.38 | significantly reduce | significantly reduce | 189 pg/mL | 49% |  | about 50% | > 5 µM
